Tests used:
In vivo toxicity study = conditions: 2.5 mg/kg every other day for 12 days, HCT116 xenograft mice; PMI-Au SNH intraperitoneally, intravenously or intragastrically
Description: To evaluate the toxicity of PMI-Au SNH including the nephrotoxicity in vivo, we carried out a comprehensive toxicity study using the subcutaneous xenograft model of HCT116 tumors from efficacy studies. PMI-Au SNH was intraperitoneally, intravenously or intragastrically injected, every other day for a duration of 12 days, at a dose of 2.5 mg/kg, with saline, ^ctrlPMI-Au SNH and DOX as controls. […] The safety of both PMI-Au SNH and ^ctrlPMI-Au SNH and toxicity of DOX were further confirmed by changes, or lack thereof, in the function of the liver and kidney (Figure 9A-G), in the weight and H&E staining of spleen (Figure 9H-I) and in the number of white blood cells and thrombocytes (Figure S11). Moreover, heart function (Figure S12), the level of red blood cells (Figure S13) and the histological H&E staining of lung (Figure S14) supported the above findings and the conclusion that PMI-Au SNH is sufficiently safe with a significant therapeutic potential. […]
intense staining. […]
To assess potential toxicities of repeatedly infusing PMI-Au SNH, we monitored body weight of all mice over the course of treatment and measured hematological indexes as well as organ function indexes after 13- day treatment. […]

chymotrypsin = experiment: Proteolysis resistance to chymotrypsin by HPLC; type: in vitro ADME; conditions: chymotrypsin with 10% serum in PBS, PBS containing 10 mM oxidized glutathione, 0.5 mg/ml chymotrypsin, read-out: t1/2 of proteolysis (converted)
Description: Figure 3 The colloidal peptide-auric SNH is stable and proteolytically resistant. (A) The physicochemical properties of the three peptide and the schematic diagram of three peptide-Auric SNH. (B-D) The dimensional change of Pep-AuNPs and Pep-Au SNH with time in PBS (pH7.4) or PBS including 20% FBS and 50 µM GSH to simulate extracellular physiological environment. (E-G) Proteolysis resistance of Pep-SH, Pep-AuNPs and Pep-Au SNH under PBS containing 10 mM oxidized glutathione, 10% serum, and 0.5 mg/ml chymotrypsin.
Linear peptides are conformationally disordered in aqueous solutions under their own steam and, consequently, tendentious to proteolysis. Conjugation of peptides with nanoparticles would improve steric hindrance against peptidase, resulting in the resistance to proteolysis, [44]. We comparatively quantified the susceptibility of Pep-AuNPs and Pep-Au SNH to chymotrypsin using HPLC (Figure 3E-G).
Fi g u re S 9. (A) The dimensional change of PMI- Au SNH with time in PBS or PBS including 20%
FBS and 50μM GSH at pH 7.4 or 4.0 to simulate extracellular physiological environment. ( B)
Proteolysis resistance of Pep-Au SNH under PBS at pH 7.4 or 4.0 containing 10 mM oxidized
glutathione, 10% serum, and 0.5 mg/ml chymotrypsin. (C) ICP- MS quantification of gold content
(from PMI- Au SNH) in stomach, colon and blood collected from health c57/b6 mice. The data […]

Row | half-life (chymotrypsin) | Compound | body weight change (In vivo toxicity study)
1 | – | COc1cccc2c1C(=O)c1c(O)c3c(c(O)c1C2=O)C[C@@](O)(C(=O)CO)C[C@@H]3O[C@H]1C[C@H](N)[C@H](O)[C@H](C)O1 [DOX, doxorubicin] | significant loss of body weight
2 | 9 ± 0.6 min | CC(=O)N[C@H](C(=O)N[C@@H](CO)C(=O)N[C@@H](Cc1ccccc1)C(=O)N[C@@H](C)C(=O)N[C@@H](CCC(=O)O)C(=O)N[C@@H](Cc1ccc(O)cc1)C(=O)N[C@@H](Cc1c[nH]c2ccccc12)C(=O)N[C@@H](C)C(=O)N[C@@H](CC(C)C)C(=O)N[C@@H](CC(C)C)C(=O)N[C@@H](CO)C(=O)N1CCC[C@H]1C(=O)N[C@@H](CS)C(=O)O)[C@@H](C)O [PMI-SH] | –
